Source: patent US20210000730A1, “COMPOSITION COMPRISING OPTICAL CLEARING AGENT FOR IMPROVING OPTICAL CHARACTERISTIC OF SKIN” (LG HOUSEHOLD & HEALTH CARE LTD., priority 2018, published 2021)
“Also recorded” adds a separate entry of the source.

System: corneum of subjects collected using corneum tape
Assay: Reduction of light scattering of corneum tape, dark field image of polarization microscope with image analysis
Conditions: washed and dried after 3~4 hours
Source text: The bright field image is a basic observation method of simply magnifying a sample without a unique optical unit and it is suitable for confirming the structure of the sample, but it is not appropriate for confirming the scattering light. The dark field image is an observation method of inducing the direct illumination light reaching the sample out, and collecting only the scattering light from the sample with objective lens, and the light from the upper light source of the microscope is scattered from the keratinocytes and appears white, and as the scattering decreases, it appears black.
The numerical value of the analyzed image is expressed in the range of 30-200, and the more the white image is, the higher the value is. The average value of the image numerical value of the unapplied site and the average value of the image numerical value of the applied site were obtained, and the reduction ratio of the image numerical value of the applied site compared to the unapplied site was calculated as a percentage.
On the other hand, to compare the effect of the present disclosure by relative values at the same concentration, the solution of urea, glycerol, sucrose, sodium lactate, polyethylene glycol 400 and hexanediol of the same concentration (10% by weight) was prepared and compared and evaluated (FIG. 3a). […]

Question: `NC(N)=O` [urea] was tested. Which “reduction of light scattering compared to the control group (water)” value (10% of urea, 100 ul applied) did it give?
Answer: 17%

Question: What about the “light scattering of corneum after treatment, washing and drying (photograph, dark field image)” value (urea applied to corneum tape, control water) of the same compound?
Answer: the scattering was reduced and it appeared transparent; also recorded: corneum scattering was reduced and appeared black
